We go through 13 compounds from paper PMC9772450, “Gel-forming antagonist provides a lasting effect on CGRP-induced vasodilation” (Frontiers in Pharmacology, 2022).

Data set [1] in a line: Visual (tube-tapping) assay of gel-forming capability and solubility. It is filed as physicochemical. Also noted: key to Gel-forming ability: Y: can form a liquid gel; N: lacks the ability to efficiently form a liquid gel. Conditions: visual inspection of 11% peptide solutions, tube-tapping, 20 min after mixing. On the procedure:
To evaluate the ability of peptides to form gels in situ, we initially determined this tendency qualitatively based on visual examinations of peptide solutions using a tube-tapping method. In addition, we quantitatively determined the viscosity of select peptide solutions using a viscometer (Rheosense Inc; http://www.rheosense.com/products/viscometers) ([Yan and Pochan, 2010]). In the visual assay, aliquots of peptides were dissolved in an aqueous solution (i.e., de-ionized water, saline, or 5% glucose solution). The peptide that dissolved instantly and stayed as a clear solution without obvious macroscopic change in viscosity at 20 min after mixing was considered soluble. If macroscopic particles of peptides remained in the solution at 20 min after mixing, the peptide was considered insoluble.

For a further data set, the target named is T1, CLR/RAMP1 receptor (Homo sapiens, UniProt O60894+Q16602).
T1 construct: host or cells: CHO-K1 (cAMP Hunter cell line)
T1 sequence (Q16602 23-461): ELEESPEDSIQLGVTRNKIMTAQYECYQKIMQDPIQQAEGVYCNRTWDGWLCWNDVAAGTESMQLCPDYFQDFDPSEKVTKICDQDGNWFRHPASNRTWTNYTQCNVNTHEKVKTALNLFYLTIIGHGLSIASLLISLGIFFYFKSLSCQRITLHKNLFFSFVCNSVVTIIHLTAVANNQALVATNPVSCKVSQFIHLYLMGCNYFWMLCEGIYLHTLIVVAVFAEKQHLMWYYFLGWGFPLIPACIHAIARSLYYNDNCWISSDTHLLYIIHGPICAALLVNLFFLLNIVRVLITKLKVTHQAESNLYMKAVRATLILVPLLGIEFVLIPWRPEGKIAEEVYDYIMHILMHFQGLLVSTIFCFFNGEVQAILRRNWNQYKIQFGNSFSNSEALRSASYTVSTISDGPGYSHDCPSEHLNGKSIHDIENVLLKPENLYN
T1 sequence (O60894 27-148): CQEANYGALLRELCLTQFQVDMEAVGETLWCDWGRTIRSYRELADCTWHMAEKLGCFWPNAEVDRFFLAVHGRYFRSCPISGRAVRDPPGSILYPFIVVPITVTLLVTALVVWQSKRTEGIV
In words: HitHunter cAMP XS+ CALCRL-RAMP1 cAMP assay, antagonist mode. The format is cell-based. Conditions: for Maximum response: antagonist mode, β-CGRP at EC80, 10-point curve, duplicate. On the procedure:
The assay of the antagonistic activity of analogs was conducted by the Eurofins Discoverx using the HitHunter cAMP XS + assay as described earlier ([Bradley and McLoughlin, 2009]; [Chang and Hsu, 2019]). The dose-dependent inhibitory effect of antagonists was studied in duplicate, at 10 different concentrations. Determination of the half-maximal inhibitory concentration (IC50) was performed using a 10-point dose-response curve. The starting concentration was 10 μM, and it was serially diluted 3-fold, in DMSO. […] Using the Hit Hunter® assay (CALCRL-RAMP1 cAMP assay in the antagonist mode; https://www.discoverx.com/products/cell-line/cho-k1-calcrl-ramp1-gs-cell-line-95-0164c2), the eight compounds in Table 1 were assayed side-by-side once, and the IC50 was derived based on the standard assay of duplicate samples of a ten-point curve. In this homogenous, non-imaging assay, the activation of CLR/RAMP1 signaling was evaluated using the Enzyme Fragment Complementation (EFC) technology with β-galactosidase (β-Gal) as the functional reporter. The enzyme was split into two complementary portions: an enzyme acceptor and an enzyme donor. The enzyme donor is fused to cAMP and it competes with cAMP generated by cells
For binding to a cAMP-specific antibody. Active β-Gal is formed by complementation of exogenous enzyme acceptor to any unbound enzyme donor-cAMP. The active enzyme then converted a chemiluminescent substrate to generate a signal. Briefly, cAMP Hunter cell lines with the select receptor were expanded from freezer stocks ([Bradley and McLoughlin, 2009]), and cells were seeded in a total volume of 20 μL into 384-well microplates and incubated at 37°C for the appropriate time. […] Intermediate dilution of samples was performed to generate 4X sample in the assay buffer. Before the assay, media was aspirated from cells and replaced with 10 μL 1:1 HBSS/Hepes:cAMP XS + Ab reagent, and 5 μL of 4X compound was added to the cells and incubated for 30 min. […] Vehicle concentration was 1%.
The chemiluminescent signal was read with a PerkinElmer chemiluminescent plate reader. The compound activity was analyzed using a CBIS data analysis suite (ChemInnovation, CA). The percentage inhibition was calculated using the following formula: % Inhibition = 100% x (1 - (mean RLU of test sample - mean RLU of vehicle control)/(mean RLU of EC80 control - mean RLU of vehicle control)). Data were normalized to the maximal and minimal response observed in the presence of EC80 agonist and vehicle.

Each structure is given as a SMILES string. Non-standard residues stand in square brackets, D forms with d. Residues, ends and D or L forms follow the SMILES beside them. *: point of attachment. Palmitoyl = CCCCCCCCCCCCCCCC(=O)*; Hyp = O=C(O)[C@@H]1C[C@@H](O)CN1; Cit = NC(=O)NCCC[C@H](N)C(=O)O; Orn = NCCC[C@H](N)C(=O)O; Dab = NCC[C@H](N)C(=O)O; Nva = CCC[C@H](N)C(=O)O; Abu = CC[C@H](N)C(=O)O; Aib = CC(C)(N)C(=O)O; Ahx = NCCCCCC(=O)O; βAla = NCCC(=O)O

As for `CCCCCCCCCCCCCCCC(=O)N[C@@H](CCCCN)C(=O)N[C@H](C(=O)N[C@@H](CCC(N)=O)C(=O)N[C@@H](CCCCN)C(=O)NC(C)(C)C(=O)N[C@@H](CO)C(=O)N[C@@H](C)C(=O)N1CCC[C@H]1C(=O)N[C@H](C(=O)N[C@@H](CC(=O)O)C(=O)N1CCC[C@H]1C(=O)N[C@@H](CO)C(=O)N[C@@H](CO)C(=O)N1CCC[C@H]1C(=O)N[C@@H](Cc1c[nH]cn1)C(=O)N[C@@H](CO)C(=O)N[C@@H](Cc1ccc(O)cc1)C(N)=O)C(C)C)C(C)C` [ADE651A] (Palmitoyl-KVQK[Aib]SAPVDPSSPHSY-NH2), in data set [1], the Gel-forming ability result is “N”.

As to `CCCCCCCCCCCCCCCC(=O)N[C@@H](CCCCN)C(=O)N[C@H](C(=O)N[C@@H](CCC(N)=O)C(=O)N[C@@H](CCCCN)C(=O)NCCCCCC(=O)N[C@@H](CO)C(=O)N[C@@H](C)C(=O)N1CCC[C@H]1C(=O)N[C@H](C(=O)N[C@@H](CC(=O)O)C(=O)N1CCC[C@H]1C(=O)N[C@@H](CO)C(=O)N[C@@H](CO)C(=O)N1CCC[C@H]1C(=O)N[C@@H](Cc1c[nH]cn1)C(=O)N[C@@H](CO)C(=O)N[C@@H](Cc1ccc(O)cc1)C(N)=O)C(C)C)C(C)C` [ADE651B] (Palmitoyl-KVQK[Ahx]SAPVDPSSPHSY-NH2), in data set [1], the Gel-forming ability result is reported as “N”.

With `CCCCCCCCCCCCCCCC(=O)N[C@@H](CCCCN)C(=O)N[C@H](C(=O)N[C@@H](CCC(N)=O)C(=O)N[C@@H](CCCCN)C(=O)N[C@@H](CCC)C(=O)N[C@@H](CO)C(=O)N[C@@H](C)C(=O)N1CCC[C@H]1C(=O)N[C@H](C(=O)N[C@@H](CC(=O)O)C(=O)N1CCC[C@H]1C(=O)N[C@@H](CO)C(=O)N[C@@H](CO)C(=O)N1CCC[C@H]1C(=O)N[C@@H](Cc1c[nH]cn1)C(=O)N[C@@H](CO)C(=O)N[C@@H](Cc1ccc(O)cc1)C(N)=O)C(C)C)C(C)C` [ADE651C] (Palmitoyl-KVQK[Nva]SAPVDPSSPHSY-NH2), at CLR/RAMP1 receptor (CHO-K1 CALCRL-RAMP1 cAMP Hunter cells, human β-CGRP at EC80 (0.37nM), 30 min pre-incubation, 10-point curve from 10 μM, 3-fold dilutions, duplicate samples, assayed side-by-side once, read-out: IC50 for antagonizing CGRP-induced CLR/RAMP1 signaling), the IC50 was 1.3 nM. Also, the Maximum response at CLR/RAMP1 receptor was 101 % of positive control. For the same compound, on CLR/RAMP1 receptor (result in words), the “Antagonistic activity toward CGRP-mediated CLR/RAMP1 signaling compared to ADE651” value is “retained the potent antagonistic activity”. In addition, the Gel-forming ability entry in data set [1] was “Y”.

On to `CCCCCCCCCCCCCCCC(=O)N[C@@H](CCCCN)C(=O)N[C@H](C(=O)N[C@@H](CCC(N)=O)C(=O)N[C@@H](CCCCN)C(=O)N[C@@H](CCCNC(N)=O)C(=O)N[C@@H](CO)C(=O)N[C@@H](C)C(=O)N1CCC[C@H]1C(=O)N[C@H](C(=O)N[C@@H](CC(=O)O)C(=O)N1CCC[C@H]1C(=O)N[C@@H](CO)C(=O)N[C@@H](CO)C(=O)N1CCC[C@H]1C(=O)N[C@@H](Cc1c[nH]cn1)C(=O)N[C@@H](CO)C(=O)N[C@@H](Cc1ccc(O)cc1)C(N)=O)C(C)C)C(C)C` [ADE651D] (Palmitoyl-KVQK[Cit]SAPVDPSSPHSY-NH2), for which the Gel-forming ability entry in data set [1] is “N”.

Take `CCCCCCCCCCCCCCCC(=O)N[C@@H](CCCCN)C(=O)N[C@H](C(=O)N[C@@H](CCC(N)=O)C(=O)N[C@@H](CCCCN)C(=O)N1C[C@H](O)C[C@H]1C(=O)N[C@@H](CO)C(=O)N[C@@H](C)C(=O)N1CCC[C@H]1C(=O)N[C@H](C(=O)N[C@@H](CC(=O)O)C(=O)N1CCC[C@H]1C(=O)N[C@@H](CO)C(=O)N[C@@H](CO)C(=O)N1CCC[C@H]1C(=O)N[C@@H](Cc1c[nH]cn1)C(=O)N[C@@H](CO)C(=O)N[C@@H](Cc1ccc(O)cc1)C(N)=O)C(C)C)C(C)C` [ADE651E] (Palmitoyl-KVQK[Hyp]SAPVDPSSPHSY-NH2): the Gel-forming ability entry in data set [1] is “N”.

Take `CCCCCCCCCCCCCCCC(=O)N[C@@H](CCCCN)C(=O)N[C@H](C(=O)N[C@@H](CCC(N)=O)C(=O)N[C@@H](CCCCN)C(=O)N[C@@H](CCCC)C(=O)N[C@@H](CO)C(=O)N[C@@H](C)C(=O)N1CCC[C@H]1C(=O)N[C@H](C(=O)N[C@@H](CC(=O)O)C(=O)N1CCC[C@H]1C(=O)N[C@@H](CO)C(=O)N[C@@H](CO)C(=O)N1CCC[C@H]1C(=O)N[C@@H](Cc1c[nH]cn1)C(=O)N[C@@H](CO)C(=O)N[C@@H](Cc1ccc(O)cc1)C(N)=O)C(C)C)C(C)C` [ADE651F]: the Gel-forming ability entry in data set [1] is given as “N”.

For the compound `CCCCCCCCCCCCCCCC(=O)N[C@@H](CCCCN)C(=O)N[C@H](C(=O)N[C@@H](CCC(N)=O)C(=O)N[C@@H](CCCCN)C(=O)N[C@@H](CCCN)C(=O)N[C@@H](CO)C(=O)N[C@@H](C)C(=O)N1CCC[C@H]1C(=O)N[C@H](C(=O)N[C@@H](CC(=O)O)C(=O)N1CCC[C@H]1C(=O)N[C@@H](CO)C(=O)N[C@@H](CO)C(=O)N1CCC[C@H]1C(=O)N[C@@H](Cc1c[nH]cn1)C(=O)N[C@@H](CO)C(=O)N[C@@H](Cc1ccc(O)cc1)C(N)=O)C(C)C)C(C)C` [ADE651G] (Palmitoyl-KVQK[Orn]SAPVDPSSPHSY-NH2), the Gel-forming ability entry in data set [1] is recorded as “N”.

As to `CCCCCCCCCCCCCCCC(=O)N[C@@H](CCCCN)C(=O)N[C@H](C(=O)N[C@@H](CCC(N)=O)C(=O)N[C@@H](CCCCN)C(=O)N[C@@H](CC)C(=O)N[C@@H](CO)C(=O)N[C@@H](C)C(=O)N1CCC[C@H]1C(=O)N[C@H](C(=O)N[C@@H](CC(=O)O)C(=O)N1CCC[C@H]1C(=O)N[C@@H](CO)C(=O)N[C@@H](CO)C(=O)N1CCC[C@H]1C(=O)N[C@@H](Cc1c[nH]cn1)C(=O)N[C@@H](CO)C(=O)N[C@@H](Cc1ccc(O)cc1)C(N)=O)C(C)C)C(C)C` [ADE651I] (Palmitoyl-KVQK[Abu]SAPVDPSSPHSY-NH2), the Gel-forming ability result in data set [1] is recorded as “N”.

Turning to `CCCCCCCCCCCCCCCC(=O)N[C@@H](CCCCN)C(=O)N[C@H](C(=O)N[C@@H](CCC(N)=O)C(=O)N[C@@H](CCCCN)C(=O)N[C@@H](CCN)C(=O)N[C@@H](CO)C(=O)N[C@@H](C)C(=O)N1CCC[C@H]1C(=O)N[C@H](C(=O)N[C@@H](CC(=O)O)C(=O)N1CCC[C@H]1C(=O)N[C@@H](CO)C(=O)N[C@@H](CO)C(=O)N1CCC[C@H]1C(=O)N[C@@H](Cc1c[nH]cn1)C(=O)N[C@@H](CO)C(=O)N[C@@H](Cc1ccc(O)cc1)C(N)=O)C(C)C)C(C)C` [ADE651K] (Palmitoyl-KVQK[Dab]SAPVDPSSPHSY-NH2), in data set [1], the Gel-forming ability entry is on record as “N”.

Take `CCCCCCCCCCCCCCCC(=O)N[C@@H](CCCCN)C(=O)N[C@H](C(=O)N[C@@H](CCC(N)=O)C(=O)N[C@@H](CCCCNC)C(=O)N[C@@H](CC(C)C)C(=O)N[C@@H](CO)C(=O)N[C@@H](C)C(=O)N1CCC[C@H]1C(=O)N[C@H](C(=O)N[C@@H](CC(=O)O)C(=O)N1CCC[C@H]1C(=O)N[C@@H](CO)C(=O)N[C@@H](CO)C(=O)N1CCC[C@H]1C(=O)N[C@@H](Cc1c[nH]cn1)C(=O)N[C@@H](CO)C(=O)N[C@@H](Cc1ccc(O)cc1)C(N)=O)C(C)C)C(C)C` [ADE651L]: the Gel-forming ability result in data set [1] is recorded as “Y”.

`CCCCCCCCCCCCCCCC(=O)N[C@@H](CCCCN)C(=O)N[C@H](C(=O)N[C@@H](CCC(N)=O)C(=O)N[C@@H](CCCCNC(=O)CCS)C(=O)N[C@@H](CC(C)C)C(=O)N[C@@H](CO)C(=O)N[C@@H](C)C(=O)N1CCC[C@H]1C(=O)N[C@H](C(=O)N[C@@H](CC(=O)O)C(=O)N1CCC[C@H]1C(=O)N[C@@H](CO)C(=O)N[C@@H](CO)C(=O)N1CCC[C@H]1C(=O)N[C@@H](Cc1c[nH]cn1)C(=O)N[C@@H](CO)C(=O)N[C@@H](Cc1ccc(O)cc1)C(N)=O)C(C)C)C(C)C` [ADE651O]: in data set [1], the Gel-forming ability entry is given as “Y”.

Take `CCCCCCCCCCCCCCCC(=O)N[C@@H](CCCCN)C(=O)N[C@H](C(=O)N[C@@H](CCC(N)=O)C(=O)N[C@@H](CCCCN)C(=O)NCCC(=O)N[C@@H](CO)C(=O)N[C@@H](C)C(=O)N1CCC[C@H]1C(=O)N[C@H](C(=O)N[C@@H](CC(=O)O)C(=O)N1CCC[C@H]1C(=O)N[C@@H](CO)C(=O)N[C@@H](CO)C(=O)N1CCC[C@H]1C(=O)N[C@@H](Cc1c[nH]cn1)C(=O)N[C@@H](CO)C(=O)N[C@@H](Cc1ccc(O)cc1)C(N)=O)C(C)C)C(C)C` [ADE651P] (Palmitoyl-KVQK[βAla]SAPVDPSSPHSY-NH2): in data set [1], the Gel-forming ability result is listed as “N”.

Consider `NCCCC[C@H](NC(=O)[C@@H](Cc1cc(Br)c(O)c(Br)c1)NC(=O)N1CCC(N2Cc3ccccc3NC2=O)CC1)C(=O)N1CCN(c2ccncc2)CC1` [BIBN4096, reference compound], for which the Maximum response on CLR/RAMP1 receptor was 100.5 % of positive control.
